Data set [1] deals with S. cerevisiae strain FY250.
Description: The plasmids encoding the LexA- and B42-fusion proteins were introduced in all necessary combinations into S. cerevisiae strain FY250 containing a plasmid encoding the lacZ reporter plasmid.
All of these experiments have been done as plate assays. The toxicity of the ligand and receptor is judged simply by seeing if either induction of the receptor fusions or application of the ligand to the plate impairs cell growth.
The test system of data set [2] is GR fusion proteins. Conditions: cited from earlier work.

As to `C[C@@H]1C[C@H]2[C@@H]3CCC4=CC(=O)C=C[C@]4(C)[C@@]3(F)[C@@H](O)C[C@]2(C)[C@@]1(O)C(=O)CO` [DEX, Dexamethasone], the “toxicity (impaired cell growth)” value in data set [1] is given as “neither DEX nor GR are toxic”. Moreover, in data set [2], the cell permeability result is recorded as “cell permeable” and the “modification or breakdown in the cell” value is on record as “not modified or broken down in the cell”.

(Values after patent US20020168685A1, “Covalent chemical inducers of protein dimerization and their uses in high throughput binding screens” (priority 2001, published 2002).)
